# Test results: patent US7446199B2, “Compositions useful as inhibitors of protein kinases” (Vertex Pharmaceuticals Incorporated, priority 2003, dated 2008)
# Biological target: T1, FLT-3 (Homo sapiens, UniProt P36888)
# T1 construct: 0.02% BSA and 3 nM FLT-3
# T1 sequence (P36888 27-993): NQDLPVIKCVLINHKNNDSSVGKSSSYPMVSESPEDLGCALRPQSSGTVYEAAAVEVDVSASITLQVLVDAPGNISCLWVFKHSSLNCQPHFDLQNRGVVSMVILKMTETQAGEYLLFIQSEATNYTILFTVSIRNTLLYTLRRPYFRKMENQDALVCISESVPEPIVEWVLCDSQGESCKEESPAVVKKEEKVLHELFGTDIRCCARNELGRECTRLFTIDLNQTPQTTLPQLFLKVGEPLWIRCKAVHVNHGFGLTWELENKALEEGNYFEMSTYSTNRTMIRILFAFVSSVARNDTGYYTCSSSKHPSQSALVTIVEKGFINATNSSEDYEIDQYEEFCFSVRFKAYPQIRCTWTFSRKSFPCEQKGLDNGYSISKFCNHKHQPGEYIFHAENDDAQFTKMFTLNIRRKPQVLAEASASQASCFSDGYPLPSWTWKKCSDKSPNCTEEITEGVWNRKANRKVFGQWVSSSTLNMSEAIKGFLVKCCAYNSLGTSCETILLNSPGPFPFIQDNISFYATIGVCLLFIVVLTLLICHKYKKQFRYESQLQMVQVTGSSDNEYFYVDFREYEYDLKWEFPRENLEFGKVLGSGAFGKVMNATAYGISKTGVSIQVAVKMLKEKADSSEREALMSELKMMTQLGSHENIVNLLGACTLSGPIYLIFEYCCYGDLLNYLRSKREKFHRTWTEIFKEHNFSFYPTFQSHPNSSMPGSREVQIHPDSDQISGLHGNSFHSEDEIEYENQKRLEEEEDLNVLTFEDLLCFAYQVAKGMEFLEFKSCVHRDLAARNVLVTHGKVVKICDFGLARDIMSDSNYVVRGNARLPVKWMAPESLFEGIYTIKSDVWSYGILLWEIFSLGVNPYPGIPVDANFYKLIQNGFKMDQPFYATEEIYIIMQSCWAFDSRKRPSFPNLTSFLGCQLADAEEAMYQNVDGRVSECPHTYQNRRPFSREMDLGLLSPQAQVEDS
# Test: Inhibition of FLT-3, radiometric filter-binding assay
# Format: biochemical
# Details: 90 μM ATP, 0.5 mg/mL pE4Y, room temperature
# Procedure, shortened: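 Radiometric filter-binding assay of FLT-3 (3 nM in Solution 2; final conc not stated) phosphorylating poly(Glu,Tyr) 4:1 (0.5 mg/mL) with 90 μM ATP plus [γ-33P]ATP, in HEPES pH 7.5, MgCl2, NaCl, DTT, BSA, 2.5% DMSO. 12-point titration, typically 0.01–5 μM, 20 min at room temperature; TCA-stopped, filtered, scintillation-counted; IC50 or Ki fitted.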
row,SMILES,Ki [nM]
1,"Fc1cnc2[nH]cc(-c3oncc3-c3cccc(F)c3F)c2c1 [Compound 45, 3-[4-(2,3-Difluoro-phenyl)-isoxazol-5-yl]-5-fluoro-1H-pyrrolo[2,3-b]pyridine]",1000 to 12500
2,"Fc1ccc(F)c(-c2cnoc2-c2c[nH]c3ncccc23)c1F [Compound 41, 3-[4-(2,3,6-Trifluoro-phenyl)-isoxazol-5-yl]-1H-pyrrolo [2,3-b]pyridine]",1000 to 12500
3,OB(O)c1cnc2[nH]cc(-c3oncc3-c3cccc(F)c3F)c2c1 [Compound 154],200 to 1000
4,"COc1cnc2[nH]cc(-c3nncn3-c3cccc(F)c3F)c2c1 [Compound 108, 3-[4-(2,3-Difluoro-phenyl)-4H-[1,2,4]triazol-3-yl]-5-methoxy-1H-pyrrolo[2,3-b]pyridine]",1000 to 12500
5,"Fc1cccc(-c2cnoc2-c2c[nH]c3ncc(CCn4cncn4)cc23)c1F [Compound 132, 3-[4-(2,3-Difluoro-phenyl)-isoxazol-5-yl]-5-(2-[1,2,4]triazol-1-yl-ethyl)-1H-pyrrolo[2,3-b]pyridine]",200 to 1000
6,"CN(C)C1CCC(c2cnc3[nH]cc(-c4oncc4-c4cccc(F)c4F)c3c2)CC1 (stereo not drawn) [Compound 141, (4-{3-[4-(2,3-Difluoro-phenyl)-isoxazol-5-yl]-1H-pyrrolo[2,3-b]pyridin-5-yl}-cyclohexyl)-dimethylamine]",200 to 1000
7,"Fc1cccc(-c2cnoc2-c2c[nH]c3ncc(Cl)cc23)c1F [Compound 44, 3-[4-(2,3-Difluoro-phenyl)-isoxazol-5-yl]-5-chloro-1H-pyrrolo[2,3-b]pyridine]",1000 to 12500
8,"Fc1cccc(-n2cnnc2-c2c[nH]c3ncc(-c4ccc(N5CCNCC5)nc4)cc23)c1F [Compound 111, 3-[4-(2,3-Difluoro-phenyl)-4H-[1,2,4]triazol-3-yl]-5-(6-piperazin-1-yl-pyridin-3-yl)-1H-pyrrolo[2,3-b]pyridine]",1000 to 12500

# Second part, the compound after the results:
row,Ki [nM],SMILES
1,1000 to 12500,"OCc1cnc2[nH]cc(-c3oncc3-c3cccc(F)c3F)c2c1 [Compound 55, {3-[4-(2,3-Difluoro-phenyl)-isoxazol-5-yl]-1H-pyrrolo[2,3-b]pyridin-5-yl}-methanol]"
2,1000 to 12500,"Fc1cccc(-c2cnoc2-c2c[nH]c3ccc(-c4ccncc4)cc23)c1F [Compound 34, 3-[4-(2,3-Difluoro-phenyl)-isoxazol-5-yl]-5-pyridin-4-yl-1H-indole]"
3,< 200,C[N+]1(C)CCN(c2ccc(-c3cnc4[nH]cc(-c5oncc5-c5cccc(F)c5F)c4c3)cc2)CC1 [Compound 155]
4,1000 to 12500,"Fc1cc(F)c(F)c(-c2cnoc2-c2c[nH]c3ncccc23)c1 [Compound 39, 3-[4-(2,3,5-Trifluoro-phenyl)-isoxazol-5-yl]-1H-pyrrolo [2,3-b]pyridine]"
5,200 to 1000,"Fc1cccc(-c2cnoc2-c2c[nH]c3nc(Cl)c(-c4ccncc4)cc23)c1F [Compound 103, 6-Chloro-3-[4-(2,3-difluoro-phenyl)-isoxazol-5-yl]-5-pyridin-4-yl-1H-pyrrolo[2,3-b]pyridine]"
6,200 to 1000,"Cc1cnc2[nH]cc(-c3oncc3-c3cccc(F)c3F)c2c1 [Compound 46, 3-[4-(2,3-Difluoro-phenyl)-isoxazol-5-yl]-5-methyl-1H-pyrrolo[2,3-b]pyridine]"
7,< 200,"CN1CCN(C(=O)[C@H]2C[C@@H]2c2cnc3[nH]cc(-c4oncc4-c4cccc(F)c4F)c3c2)CC1 (relative stereo) [Compound 142, trans-(2-{3-[4-(2,3-Difluoro-phenyl)-isoxazol-5-yl]-1H-pyrrolo[2,3-b]pyridin-5-yl}-cyclopropyl)-(4-methyl-piperazin-1-yl)-methanone]"
8,< 200,NC(=O)c1ccc(-c2cnc3[nH]cc(-c4oncc4-c4cccc(F)c4F)c3c2)cc1 [Compound 153]
9,1000 to 12500,"O=C(c1cnc2[nH]cc(-c3oncc3-c3cccc(F)c3F)c2c1)N1CCCC1 [Compound 104, {3-[4-(2,3-Difluoro-phenyl)-isoxazol-5-yl]-1H-pyrrolo[2,3-b]pyridin-5-yl}-pyrrolidin-1-yl-methanone]"
10,1000 to 12500,"Fc1cccc(-c2cnoc2-c2n[nH]c3ncccc23)c1F [Compound 31, 3-(4-(2,3-difluorophenyl)isoxazol-5-yl)-1H-pyrazolo[3,4-b]pyridine]"
